Experimental data published in patent US10479780B2, “Aminopyrazole derivatives” (Chugai Seiyaku Kabushiki Kaisha, priority 2015, dated 2019).

How the values were obtained:
Assay type in all cases: biochemical
human Yes1 enzyme = target: T1, human Yes1 enzyme (Homo sapiens, UniProt P07947); assay: Yes1 enzyme inhibitory activity (time-resolved fluorometry, biotinylated peptide phosphorylation); conditions: read-out: YES_IC50
T1 construct: made in house
Outline: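 Inhibition was expressed against a compound-free control to give IC50, using TR-FRET read-out (Eu-cryptate anti-pTyr antibody, streptavidin-XL665).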

human Src enzyme = target: T2, human Src enzyme (Homo sapiens, UniProt P12931); assay: Src enzyme inhibitory activity (time-resolved fluorometry, biotinylated peptide phosphorylation); conditions: read-out: SRC_IC50
T2 construct: purchased Carna Biosciences, Inc. 08-173
Outline: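 Compounds were tested for blocking tyrosine phosphorylation of a biotinylated peptide substrate by recombinant human Src. Phosphorylated product was quantified by time-resolved fluorometry using europium cryptate and XL665 conjugates, and IC50 was calculated against the compound-free control.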

human Lck enzyme = target: T3, human Lck enzyme (Homo sapiens, UniProt P06239); assay: Lck enzyme inhibitory activity (time-resolved fluorometry, biotinylated peptide phosphorylation); conditions: read-out: LCK_IC50
T3 construct: purchased Carna Biosciences, Inc. 08-170
Outline: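 Readout pairs a europium cryptate-labelled anti-phosphotyrosine antibody with XL665-streptavidin, measured by time-resolved fluorescence. IC50 derived from percent inhibition against untreated controls.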

T1 sequence (P07947 whole entry): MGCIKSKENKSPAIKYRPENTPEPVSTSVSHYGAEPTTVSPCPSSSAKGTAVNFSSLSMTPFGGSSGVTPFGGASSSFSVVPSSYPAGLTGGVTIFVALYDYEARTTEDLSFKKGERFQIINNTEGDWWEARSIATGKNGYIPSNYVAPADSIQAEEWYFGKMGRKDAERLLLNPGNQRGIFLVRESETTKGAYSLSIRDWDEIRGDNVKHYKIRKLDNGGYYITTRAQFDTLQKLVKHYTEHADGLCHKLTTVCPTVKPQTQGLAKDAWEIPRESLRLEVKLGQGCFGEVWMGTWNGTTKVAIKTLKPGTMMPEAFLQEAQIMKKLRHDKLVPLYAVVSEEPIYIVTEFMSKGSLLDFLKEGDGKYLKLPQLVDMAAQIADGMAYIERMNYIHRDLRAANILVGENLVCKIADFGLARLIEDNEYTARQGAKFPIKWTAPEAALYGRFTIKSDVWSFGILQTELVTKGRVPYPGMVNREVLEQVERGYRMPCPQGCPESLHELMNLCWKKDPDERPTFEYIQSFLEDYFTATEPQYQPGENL
T3 sequence (P06239 whole entry): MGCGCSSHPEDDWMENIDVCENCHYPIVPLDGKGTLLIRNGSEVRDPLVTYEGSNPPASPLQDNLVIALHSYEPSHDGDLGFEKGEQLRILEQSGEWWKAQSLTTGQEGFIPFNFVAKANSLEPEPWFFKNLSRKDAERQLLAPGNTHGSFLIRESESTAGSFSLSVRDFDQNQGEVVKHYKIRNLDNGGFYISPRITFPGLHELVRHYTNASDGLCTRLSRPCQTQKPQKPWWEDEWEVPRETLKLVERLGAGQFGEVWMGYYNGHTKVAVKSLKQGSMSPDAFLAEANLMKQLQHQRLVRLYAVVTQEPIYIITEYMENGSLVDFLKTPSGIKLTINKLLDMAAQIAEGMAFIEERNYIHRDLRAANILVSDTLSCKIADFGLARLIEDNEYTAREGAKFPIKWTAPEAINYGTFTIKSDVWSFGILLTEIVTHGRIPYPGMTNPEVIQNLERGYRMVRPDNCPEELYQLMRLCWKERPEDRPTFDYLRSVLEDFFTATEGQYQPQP
T2 sequence (P12931 whole entry): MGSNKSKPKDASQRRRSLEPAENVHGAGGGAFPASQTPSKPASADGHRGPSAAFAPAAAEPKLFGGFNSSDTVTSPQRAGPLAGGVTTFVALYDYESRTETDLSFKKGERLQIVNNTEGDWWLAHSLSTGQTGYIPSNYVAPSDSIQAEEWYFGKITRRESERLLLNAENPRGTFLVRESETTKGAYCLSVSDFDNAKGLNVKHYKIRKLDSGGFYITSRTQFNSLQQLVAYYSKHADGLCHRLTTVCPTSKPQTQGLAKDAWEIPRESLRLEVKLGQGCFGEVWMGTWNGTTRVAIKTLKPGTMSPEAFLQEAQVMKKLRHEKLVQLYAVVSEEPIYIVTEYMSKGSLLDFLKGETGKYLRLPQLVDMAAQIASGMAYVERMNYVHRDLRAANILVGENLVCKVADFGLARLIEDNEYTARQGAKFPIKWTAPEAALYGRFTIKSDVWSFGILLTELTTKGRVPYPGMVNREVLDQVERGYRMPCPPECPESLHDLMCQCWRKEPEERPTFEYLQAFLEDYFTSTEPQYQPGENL

IC50 (human Yes1 enzyme) | IC50 (human Src enzyme) | IC50 (human Lck enzyme) | Structure (SMILES)
0.5 nM | 10 nM | 6.7 nM | Cc1cc(Oc2c(F)cccc2F)ncc1-n1ncc(C(=O)c2cc3cc(OC4CCN(C(C)C)CC4)c(F)cc3[nH]2)c1N [Example 5-1-204, [5-amino-1-[6-(2,6-difluorophenoxy)-4-methylpyridin-3-yl]pyrazol-4-yl]-[6-fluoro-5-(1-propan-2-ylpiperidin-4-yl)oxy-1H-indol-2-yl] methanone]
0.43 nM | 15 nM | 7.2 nM | Cc1cc(Oc2c(F)cccc2F)ncc1-n1ncc(C(=O)c2cc3cc(OC4CCN(C(C)C)CC4)c(Cl)cc3[nH]2)c1N [Example 5-1-205, [5-amino-1-[6-(2,6-difluorophenoxy)-4-methylpyridin-3-yl]pyrazol-4-yl]-[6-chloro-5-(1-propan-2-ylpiperidin-4-yl)oxy-1H-indol-2-yl] methanone]
1.9 nM | 350 nM | 82 nM | Cc1cc2cc(C(=O)c3cnn(-c4ccc(Oc5ccccc5F)c(C)c4F)c3N)[nH]c2cc1NS(C)(=O)=O [Example 5-1-207, N-[2-[5-ainino-1-[2-fluoro-4-(2-fluorophenoxy)-3-methylphenyl]pyrazole-4-carbonyl]-5-methyl-1H-indol-6-yl]methanesulfonamide]
3.7 nM | 450 nM | 65 nM | Cc1cc(-n2ncc(C(=O)c3cc4cc(OC5CCN(C(C)C)CC5)c(F)cc4[nH]3)c2N)ccc1Oc1cccc(F)c1 [Example 5-1-208, [5-amino-1-[4-(3-fluorophenoxy)-3-methylphenyl]pyrazol-4-yl]-[6-fluoro-5-(1-propan-2-ylpiperidin-4-yl)oxy-1H-indol-2-yl] methanone]
4.4 nM | 420 nM | 98 nM | Cc1cc(-n2ncc(C(=O)c3cc4cc(OC5CCN(C(C)C)CC5)c(Cl)cc4[nH]3)c2N)ccc1Oc1cccc(F)c1 [Example 5-1-209, [5-amino-1-[4-(3-fluorophenoxy)-3-methylphenyl]pyrazol-4-yl]-[6-chloro-5-(1-propan-2-ylpiperidin-4-yl)oxy-1H-indol-2-yl] methanone]
6.5 nM | 510 nM | 120 nM | Cc1cc(-n2ncc(C(=O)c3cc4cc(OC5CCN(C(C)C)CC5)c(Br)cc4[nH]3)c2N)ccc1Oc1cccc(F)c1 [Example 5-1-210, [5-amino-1-[4-(3-fluorophenoxy)-3-methylphenyl]pyrazol-4-yl]-[6-bromo-5-(1-propan-2-ylpiperidin-4-yl)oxy-1H-indol-2-yl] methanone]
4.5 nM | 220 nM | 60 nM | Cc1cc(-n2ncc(C(=O)c3cc4cc(OC5CCN(C(C)C)CC5)c(Br)cc4[nH]3)c2N)c(F)cc1Oc1ccccc1F [Example 5-1-212, [5-amino-1-[2-fluoro-4-(2-fluorophenoxy)-5-methylphenyl]pyrazol-4-yl]-[6-bromo-5-(1-propan-2-ylpiperidin-4-yl)oxy-1H-indol-2-yl] methanone]
9.8 nM | 600 nM | 150 nM | Cc1cc2cc(C(=O)c3cnn(-c4ccc(Oc5ccccc5F)c(C)c4C)c3N)[nH]c2cc1NS(C)(=O)=O [Example 5-1-213, N-[2-[5-amino-1-[4-(2-fluorophenoxy)-2,3-dimethylphenyl]pyrazole-4-carbonyl]-5-methyl-1H-indol-6-yl]methanesulfonamide]
0.99 nM | 52 nM | 11 nM | Cc1cc2cc(C(=O)c3cnn(-c4ccc(Oc5ccccc5F)c(F)c4F)c3N)[nH]c2cc1NS(C)(=O)=O [Example 5-1-214, N-[2-[5-amino-1-[2,3-difluoro-4-(2-fluorophenoxy)phenyl]pyrazole-4-carbonyl]-5-methyl-1H-indol-6-yl]methanesulfonamide]
0.81 nM | 82 nM | 6 nM | Cc1cc(-n2ncc(C(=O)c3cc4cc(OC5CCN(C(C)C)CC5)c(N5CCC(N6CCOCC6)CC5)cc4[nH]3)c2N)c(F)cc1Oc1ccccc1F [Example 5-1-215, [5-amino-1-[2-fluoro-4-(2-fluorophenoxy)-5-methylphenyl]pyrazol-4-yl]-[6-(4-morpholin-4-ylpiperidin-1-yl)-5-(1-propan-2-ylpiperidin-4-yl)oxy-1H-indol-2-yl]methanone]
1.7 nM | 1000 nM | 47 nM | Cc1cc(-n2ncc(C(=O)c3cc4cc(OC5CCN(C6CCCC6)CC5)c(Br)cc4[nH]3)c2N)ccc1Oc1ccccc1F [Example 5-1-216, [5-amino-1-[4-(2-fluorophenoxy)-3-methylphenyl]pyrazol-4-yl]-[6-bromo-5-(1-cyclopentylpiperidin-4-yl)oxy-1H-indol-2-yl] methanone]
1.4 nM | 150 nM | 48 nM | Cc1cc(-n2ncc(C(=O)c3cc4cc(OCC(F)F)c(C5CCN(S(C)(=O)=O)CC5)cc4[nH]3)c2N)ccc1Oc1ccccc1F [Example 5-1-217, [5-amino-1-[4-(2-fluorophenoxy)-3-methylphenyl]pyrazol-4-yl]-[5-(2,2-difluoroethoxy)-6-(1-methylsulfonylpiperidin-4-yl)-1H-indol-2-yl]methanone]
0.64 nM | 220 nM | 39 nM | Cc1cc(-n2ncc(C(=O)c3cc4cc(OC5CCN(C6CCC6)CC5)c(Br)cc4[nH]3)c2N)ccc1Oc1ccccc1F [Example 5-1-218, [5-amino-1-[4-(2-fluorophenoxy)-3-methylphenyl]pyrazol-4-yl]-[6-bromo-5-(1-cyclobutylpiperidin-4-yl)oxy-1H-indol-2-yl] methanone]
1.3 nM | 460 nM | 83 nM | Cc1cc(-n2ncc(C(=O)c3cc4cc(OC5CCN(C6CC6)CC5)c(Br)cc4[nH]3)c2N)ccc1Oc1ccccc1F [Example 5-1-219, [5-amino-1-[4-(2-fluorophenoxy)-3-methylphenyl]pyrazol-4-yl]-[6-bromo-5-(1-cyclopropylpiperidin-4-yl)oxy-1H-indol-2-yl] methanone]
1.5 nM | 180 nM | 56 nM | Cc1cc(-n2ncc(C(=O)c3cc4cc(OC5CCN(C6COC6)CC5)c(Br)cc4[nH]3)c2N)ccc1Oc1ccccc1F [Example 5-1-220, (5-amino-1-(4-(2-fluorophenoxy)-3-methylphenyl)-1H-pyrazol-4-yl)(6-bromo-5-((1-(oxetan-3-yl)piperidin-4-yl)oxy)-1H-indol-2-yl)methanone]
0.66 nM | 6.4 nM | 7.5 nM | Cc1cc(Oc2c(F)cccc2F)ncc1-n1ncc(C(=O)c2cc3cc(OC4CCN(C5CCC5)CC4)c(Br)cc3[nH]2)c1N [Example 5-1-221, [5-amino-1-[6-(2,6-difluorophenoxy)-4-methylpyridin-3-yl]pyrazol-4-yl]-[6-bromo-5-(1-cyclobutylpiperidin-4-yl)oxy-1H-indol-2-yl] methanone]
1.3 nM | 4.7 nM | 7.5 nM | Cc1cc(Oc2c(F)cccc2F)ncc1-n1ncc(C(=O)c2cc3cc(OC4CCN(C5COC5)CC4)c(Br)cc3[nH]2)c1N [Example 5-1-222, [5-amino-1-[6-(2,6-difluorophenoxy)-4-methylpyridin-3-yl]pyrazol-4-yl]-[6-bromo-5-[1-(oxetan-3-yl)plperidin-4-yl]oxy-1H-indol-2-yl] methanone]
